Results reported in patent US20160075695A1, “BENZIMIDAZOLE DERIVATIVES AS BROMODOMAIN INHIBITORS” (Gilead Sciences, Inc., priority 2013, published 2016).
One block for each compound: values may come before it.

What was measured:
[1] = biological target: T1, BRD4-2 (Homo sapiens, UniProt O60885); assay: BRD4-2 Ligand KI assay (TR-FRET, Cy5 labeled probe displacement); assay type: binding
T1 construct: made in house; host or cells: Escherichia coli
Experimental: (§1) Binding of the two tandem bromodomains, BRD4-I and BRD4-2, to a Cy5 labeled probe/ligand (Compound 1020-501) were measured using a homogeneous time resolved fluorescence resonance energy transfer (TR-FRET) assay.
(§2) The labeled ligand specifically binds BRD4-1 and BRD4-2 and can be displaced by a small molecule inhibitor that shares a similar or overlapping binding site. BRD4-I and BRD4-2 were expressed and purified from Escherichia coli as N-terminal His6-tagged proteins. A Eu-cryptate labeled anti-His antibody (Perkin Elmer) was used to specifically bind BRD4. […] Assays were performed in 50 mM Hepes (pH 7.5), 150 mM NaCl, 0.1 mg/ml BSA, 0.01% (v/v) Brij, 0.5% (v/v) DMSO and 1.0 nM labeled ligand at the following concentrations for each BRD4 isoform: 2 nM BRD4-1 and 0.5 nM BRD4-2. After an assay reaction time of 60 minutes at 25° C., binding was measured with 2 nM Eu-cryptate labeled anti-His antibody. TR-FRET signal was detected on an Envision plate reader (Ex: 320 nm; Em: 615/665 nm; 100 μs delay and 200 μs read window). […] All IC50 values represent geometric mean values of a minimum of four determinations. The IC50 values were converted to Ki values (dissociation constant for BRD4-inhibitor complex) using the Cheng and Prusoff equation for a competitive inhibitor mode of action. These assays generally produced results within 3-fold of the reported mean.

[2] = biological target: T2, BRD4-1 (Homo sapiens, UniProt O60885); assay: BRD4-1 Ligand KI assay (TR-FRET, Cy5 labeled probe displacement); assay type: binding
T2 construct: made in house; host or cells: Escherichia coli
Experimental: as §1, §2

[3] = tested on: c-Myc in MM.1S cells; assay: c-Myc down regulation assay (MSD) in MM.1S cells; assay type: cell-based; details: Homo sapiens, MM1.S, 24 hrs incubation
Experimental: An enzyme linked immunosorbent assay using the Meso Scale Diagnostic (MSD) technology was used to detect levels of c-Myc produced in MM.1S cells (ATCC). MM.1S cells were cultured in RPMI-1640 media (Corning), supplemented with 10% FBS (Hyclone), 1% penicillin-streptomycin (Cellgro), 2-mercaptoethanol (Gibco) and seeded onto 384-tissue culture treated filter binding plates (Millipore) at a density of 40K cells/well containing titrations of small molecule inhibitors or DMSO (0.4%) in a volume of […] of media. After an incubation time of 24 hrs, cells were lysed (1× lysis buffer (Thermo) supplemented with protease and phosophatase inhibitor cocktail (Thermo)) and the plates centrifuged (1000 rpm, 1 min) to capture c-Myc on MSD plates coated with a monoclonal c-Myc antibody (Origene). Assay wells were washed (3× Invitrogen wash buffer) and probed with a polyclonal c-Myc antibody (Abeam) and MSD detection antibody solution in order to detect levels of c-Myc on the MSD platform. c-Myc capture was reported in pg/ml based on a standard curve using recombinant c-Myc protein (Prosci). EC50 values were calculated from the fit of the dose-response curves to a four-parameter equation. All EC50 values represent geometric mean values of a minimum of four determinations. These assays generally produced results within 3-fold of the reported mean.

[4] = tested on: MM.1S cells; assay: MM.1S viability assay (CellTiter Glo); assay type: cell-based; details: Homo sapiens, MM1.S, 72 hr incubation, read-out: MM.1S Cell viability (EC50)
Experimental: For cell viability in the MM.1S cell line, cells were seeded onto 384-tissue culture treated plates (Greiner) at a density of 60K cells/well containing titrations of small molecule inhibitors or DMSO (0.2%). After 72 hr incubation cells were analyzed for cell viability by addition of CellTiter Glo (Promega) to the assay plates. After 15 min incubation at room temperature the signal from the viable cells was analyzed on an Envision plate reader (Perkin Elmer). EC50 values were calculated from the fit of the dose-response curves to a four-parameter equation. All EC50 values represent geometric mean values of a minimum of four determinations. These assays generally produced results within 3-fold of the reported mean.

[5] = tested on: MT-4 cells; assay: MT-4 proliferation assay; assay type: cell-based; details: Homo sapiens, MT4, 120 h; Table 2; 5 days, Cell Titer Glo luminescence
Experimental: Compounds were tested in a standardized high-throughput 384-well assay format. Each compound was serially diluted 3-fold in 100% DMSO in polypropylene 384-well plates using a Biomek FX Workstation, and 0.4 μL compound added to an assay plate containing 40 μL RPMI media. Compounds were arranged in a horizontal pattern, with 10 concentrations per compound, and 8 compounds added per plate. Due to low DMSO tolerability, the final DMSO concentration never exceeded 0.5% (v/v). Each assay plate contained 10 μM Puromycin and 0.5% DMSO in RPMI-1640 as positive and negative controls respectively. MT-4 cells (HTLV-1 transformed, human T lymphoblastoid cells, NIH Aids Reagent program) were added in volumes of 35 μL per well and 2,000 cells per well using a Biotek uFlow Workstation (Biotek, Winooski, Vt.), and the plates subsequently incubated for 5 days at 37° C. in an incubator set at 5% CO2 and 90% humidity.
After 5 days, 22 μL Cell Titer Glo (Promega) was added to the assay plates with a Biotek uFlow Workstation. Plates were subsequently placed on a Perkin Elmer Envision Plate Reader for 5 minutes before the luminescence signal was read.

[6] = biological target: T2, BRD4-1; assay: HTRF (TR-FRET) assay, BRD4-1 binding to acetylated histone H4 peptide; details: 60 nM BRD4-1, 200 nM H4 peptide, 60 minutes at 25° C.; geometric mean of a minimum of four determinations; read-out: HTRF BRD4-1 (IC50)
Experimental: (§3) Binding of the two tandem bromodomains, BRD4-1 and BRD4-2, to an acetylated histone H4 peptide was measured using a homogeneous time resolved fluorescence resonance energy transfer (TR-FRET) assay. […] BRD4-1 and BRD4-2 were expressed and purified from Escherichia coli as N-terminal His6-tagged proteins. An XL665 labeled anti-His antibody (Cisbio) was used to specifically bind BRD4 and a cryptate labeled streptavidin protein was used because it specifically recognized the biotinylated H4 peptide. […] After an assay reaction time of 60 minutes at 25° C., binding was measured with 2 nM crytptate labeled streptavidin and 10 nM anti-His-XL665 antibody. TR-FRET signal was detected on an Envision plate reader (Ex: 320 nm; Em: 615/665 nm; 100 us delay and 200 μs read window). […] All IC50 values represent geometric mean values of a minimum of four determinations.

[7] = biological target: T2, BRD4-1; assay: Alpha assay, BRD4-1 binding to acetylated histone H4 peptide; details: 15 nM BRD4-1, 200 nM H4 peptide, 60 minutes at 25° C.; geometric mean of a minimum of four determinations; read-out: Alpha Assay (IC50)
Experimental: Binding of the bromodomain BRD4-I to an acetylated histone H4 peptide was measured using a bead-based Amplified Luminescent Proximity Homogeneous Assay (ALPHA). […] BRD4-I was expressed and purified from Escherichia coli as an N-terminal His6-tagged protein. Nickel-Chelate ALPHA acceptor beads (Perkin Elmer) were used to specifically bind BRD4-1 and ALPHA streptavidin donor beads (Perkin Elmer) were used because they specifically recognized the biotinylated H4 peptide. […] Assays were performed in 50 mM Hepes (pH 7.5), 150 mM NaCl, 0.1 mg/ml BSA, 0.01% (v/v) Brij, 0.5% (v/v) DMSO, 200 nM H4 peptide and 15 nM of BRD4-1 protein. After an assay reaction time of 60 minutes at 25° C., binding was measured with 20 μg/ml streptavidin donor beads and 20 μg/ml nickle-chelate acceptor beads. ALPHA signal was detected on an Envision plate reader (Ex: 320 nm; Em: 570 nm; Ex time: 180 ms). […] All IC50 values represent geometric mean values of a minimum of four determinations.

[8] = biological target: T1, BRD4-2; assay: HTRF (TR-FRET) assay, BRD4-2 binding to acetylated histone H4 peptide; details: 120 nM BRD4-2, 200 nM H4 peptide, 60 minutes at 25° C.; geometric mean of a minimum of four determinations; read-out: HTRF BRD4-2 (IC50)
Experimental: as §3

[9] = 0.5 nM BRD4-2, 1.0 nM labeled ligand, 60 minutes at 25° C., read-out: BRD4-2 Ligand KI (IC50)
[10] = 2 nM BRD4-1, 1.0 nM labeled ligand, 60 minutes at 25° C., read-out: BRD4-1 Ligand KI (IC50)

Structure (SMILES): Cc1cccc(C(O)(c2cc(-c3c(C)noc3C)cc3[nH]c(C4CC4)nc23)C2CCCO2)n1 (racemic) [Compound 1020-114, (2-cyclopropyl-6-(3,5-dimethylisoxazol-4-yl)-1H-benzo[d]imidazol-4-yl)(6-methylpyridin-2-yl)(tetrahydrofuran-2-yl)methanol]
- IC50 [1, 9]: 2.7 nM
- IC50 [2, 10]: 3.8 nM

Structure (SMILES): Cc1noc(C)c1-c1cc(C(O)(c2nccs2)c2nccs2)c2nc(C3CC3)[nH]c2c1 [Compound 1020-103, (2-cyclopropyl-6-(3,5-dimethylisoxazol-4-yl)-1H-benzo[d]imidazol-4-yl)di(thiazol-2-yl)methanol]
- IC50 [1, 9]: 12.4 nM
- IC50 [2, 10]: 4 nM

Structure (SMILES): Cc1noc(C)c1-c1cc(C(O)(c2ccccn2)c2ccccn2)c2nc(C3CC3)[nH]c2c1 [Compound 1020-104, (2-cyclopropyl-6-(3,5-dimethylisoxazol-4-yl)-1H-benzo[d]imidazol-4-yl)di(pyridin-2-yl)methanol]
- IC50 [1, 9]: 11.7 nM
- IC50 [2, 10]: 7.2 nM

Structure (SMILES): CCC(O)(CC)c1cc(-c2c(C)noc2C)cc2c1nc(C1CC1)n2C [Compound 1020-132, 3-(2-Cyclopropyl-6-(3,5-dimethylisoxazol-4-yl)-1-methyl-1H-benzo[d]imidazol-4-yl)pentan-3-ol]
- IC50 [6]: 610 nM
- IC50 [7]: 573 nM
- IC50 [8]: 883 nM

Structure (SMILES): Cc1noc(C)c1-c1cc(N2C(=O)CCC2C)c2nc(C3CC3)[nH]c2c1 (centres unmarked) [Compound 1020-136, 1-(2-Cyclopropyl-6-(3,5-dimethylisoxazol-4-yl)-1H-benzo[d]imidazol-4-yl)-5-methylpyrrolidin-2-one]
- IC50 [6]: 823 nM
- IC50 [7]: 513 nM
- IC50 [8]: 727 nM

Structure (SMILES): Cc1noc(C)c1-c1cc(C(O)(c2ccccn2)c2ccccn2)c2nc(C3CC3)[nH]c2c1F [Compound 1020-224, (2-cyclopropyl-6-(3,5-dimethylisoxazol-4-yl)-7-fluoro-1H-benzo[d]imidazol-4-yl)di(pyridin-2-yl)methanol]
- IC50 [1]: 20.2 nM
- IC50 [2]: 10.8 nM

Structure (SMILES): Cc1noc(C)c1-c1cc(C(O)(c2ncccn2)c2ccc(F)cc2F)c2nc(C3CC3)[nH]c2c1 (centres unmarked) [Compound 1020-257, (2-Cyclopropyl-6-(3,5-dimethylisoxazol-4-yl)-1H-benzo[d]imidazol-4-yl)(2,4-difluorophenyl)(pyrimidin-2-yl)methanol]
- IC50 [1, 9]: 5.6 nM
- IC50 [2, 10]: 4.7 nM

Continued, in another order:

- EC50 [3]: 5.7 nM
- EC50 [4]: 17.8 nM
Structure (SMILES): Cc1noc(C)c1-c1cc(C(O)(c2cccnn2)C2CCCO2)c2nc(C3CC3)[nH]c2c1 (single isomer, unassigned) [Compound 1020-289, (2-cyclopropyl-6-(3,5-dimethylisoxazol-4-yl)-1H-benzo[d]imidazol-4-yl)(pyridazin-3-yl)(tetrahydrofuran-2-yl)methanol]
- EC50 [5]: 4.2 nM

- IC50 [1, 9]: 13.5 nM
- IC50 [2, 10]: 10.4 nM
Structure (SMILES): Cc1noc(C)c1-c1cc(C(O)(c2ccccc2)c2cccnc2)c2nc(C3CC3)[nH]c2c1 (centres unmarked) [Compound 1020-112, (2-cyclopropyl-6-(3,5-dimethylisoxazol-4-yl)-1H-benzo[d]imidazol-4-yl)(phenyl)(pyridin-3-yl)methanol]

- IC50 [1, 9]: 12.8 nM
- IC50 [2, 10]: 10.7 nM
Structure (SMILES): Cc1noc(C)c1-c1cc(C(O)(c2ccccc2)c2ccccn2)c2nc(C3CC3)[nH]c2c1 (centres unmarked) [Compound 1020-113, (2-cyclopropyl-6-(3,5-dimethylisoxazol-4-yl)-1H-benzo[d]imidazol-4-yl)(phenyl)(pyridin-2-yl)methanol]

- IC50 [6]: 187 nM
- IC50 [7]: 52.8 nM
- IC50 [8]: 399 nM
Structure (SMILES): CCC1CCC(=O)N1c1cc(-c2c(C)noc2C)cc2[nH]c(C3CC3)nc12 (centres unmarked) [Compound 1020-137, 1-(2-Cyclopropyl-6-(3,5-dimethylisoxazol-4-yl)-1H-benzo[d]imidazol-4-yl)-5-ethylpyrrolidin-2-one]
